The results in this text go back to patent US20260365634A1, “HERBICIDAL PYRAZOLE COMPOUNDS” (SYNGENTA CROP PROTECTION AG, priority 2022, published 2026).

Type in all cases: in vivo
Common to all, as to conditions: 250 g/ha, evaluated after 13 days

For experiment [1], the system named is Amaranthus palmeri (AMAPA). Description: Pre-emergence herbicidal glasshouse test. As for the experimental part: (§1) Seeds of a variety of test species are sown in standard soil in pots Amaranthus palmeri (AMAPA), Amaranthus retoflexus (AMARE), Echinochloa crus-galli (ECHCG), Ipomoea hederacea (IPOHE), Setaria faberi (SETFA). After cultivation for one day (pre-emergence) or after 8 days cultivation (post-emergence) under controlled conditions in a glasshouse (at 24/16 °C, day/night; 14 hours light; 65% humidity), the plants are sprayed with an aqueous spray solution derived from the formulation of the technical active ingredient in acetone/water (50:50) solution containing 0.5% Tween 20 (polyoxyethelyene sorbitan monolaurate, CAS RN 9005-64-5). Compounds are applied at 250 g/ha unless otherwise stated. The test plants are then grown in a glasshouse under controlled conditions in a glasshouse (at 24/16 °C, day/night; 14 hours light; 65% humidity) and watered twice daily. After 13 days for pre and post-emergence, the test is evaluated for the percentage damage caused to the plant. The biological activities are shown in the following table on a five-point scale (5=81-100%; 4=61-80%; 3=41-60%; 2=21-40%; 1=0-20%).

In experiment [2] the test system is Echinochloa crus-galli (ECHCG). Description: Pre-emergence herbicidal glasshouse test. The procedure: as §1
Experiment [3] concerns Amaranthus retoflexus (AMARE). Description: Pre-emergence herbicidal glasshouse test. The procedure:
as §1

For experiment [4], the system named is Ipomoea hederacea (IPOHE). The experiment can be described thus: Pre-emergence herbicidal glasshouse test. The procedure:
as §1

The subject of experiment [5] is Setaria faberi (SETFA). The experiment can be described thus: Pre-emergence herbicidal glasshouse test. The procedure: as §1
The subject of experiment [6] is Amaranthus palmeri (AMAPA). Description: Post-emergence herbicidal glasshouse test. The procedure: as §1
The test system of experiment [7] is Echinochloa crus-galli (ECHCG). Description: Post-emergence herbicidal glasshouse test. As for the experimental part:
as §1

Experiment [8] has as its system Amaranthus retoflexus (AMARE). The experiment can be described thus: Post-emergence herbicidal glasshouse test. The procedure:
as §1

Experiment [9] deals with Ipomoea hederacea (IPOHE). The experiment can be described thus: Post-emergence herbicidal glasshouse test. The procedure:
as §1

In experiment [10] the test system is Setaria faberi (SETFA). Description: Post-emergence herbicidal glasshouse test. As for the experimental part: as §1

On to `N#CC1(Cn2nc(C(F)(F)F)cc2Cc2ncc(Cl)cn2)CC1` [Compound 1.022], for which the “percentage damage caused to the plant (five-point scale), AMAPA” value (“percentage damage caused … AMAPA” below) in [1] and in experiment [6] was 4 (61-80%) throughout. For the same molecule, the “percentage damage caused to the plant (five-point scale), ECHCG” value (from here on “percentage damage caused … ECHCG”) in [2] is reported as 3 (41-60%); in experiment [7], 1 (0-20%). Further, the “percentage damage caused to the plant (five-point scale), AMARE” value (shortened to “percentage damage caused … AMARE”) in [3] is 5 (81-100%); in [8] it was 4 (61-80%). The “percentage damage caused to the plant (five-point scale), IPOHE” value (“percentage damage caused … IPOHE” below) is recorded as 5 (81-100%) in experiment [4] and 4 (61-80%) in experiment [9]. Besides, the “percentage damage caused to the plant (five-point scale), SETFA” value (from here on “percentage damage caused … SETFA”) in experiment [5] is listed as 4 (61-80%); in experiment [10], 1 (0-20%).
Consider `FC(F)(Cl)c1cc(Cc2ncc(Cl)cn2)n(CCC2CC2)n1` [Compound 1.032], for which the “percentage damage caused … AMAPA” value in experiment [1] and in experiment [6] was 5 (81-100%) each time. The “percentage damage caused … ECHCG” value in experiment [2] was 5 (81-100%); in experiment [7], 4 (61-80%). For the same molecule, the “percentage damage caused … AMARE” value in experiment [3] and in experiment [8] was 5 (81-100%) each time. Besides, the “percentage damage caused … IPOHE” value in [4] was 5 (81-100%); in experiment [9], 4 (61-80%). The “percentage damage caused … SETFA” value in [5] and in experiment [10] was 5 (81-100%) throughout.
In the case of `C=CCCn1nc(C(F)F)cc1Cc1ncc(Cl)cn1` [Compound 1.021], the “percentage damage caused … AMAPA” value in experiment [1] was 5 (81-100%); in [6], 2 (21-40%). Besides, the “percentage damage caused … ECHCG” value is reported as 2 (21-40%) in experiment [2] and 1 (0-20%) in experiment [7]. Also, the “percentage damage caused … AMARE” value is 5 (81-100%) in experiment [3] and 3 (41-60%) in experiment [8]. Besides, the “percentage damage caused … IPOHE” value in experiment [4] and in [9] was 1 (0-20%) in each case. Moreover, the “percentage damage caused … SETFA” value in experiment [5] was 3 (41-60%); in [10], 1 (0-20%).
`CCCCn1nc(C(F)F)cc1Cc1ncc(Cl)cc1F` [Compound 1.013]: the “percentage damage caused … AMAPA” value in [1] was 3 (41-60%); in [6], 2 (21-40%). Besides, the “percentage damage caused … ECHCG” value is recorded as 3 (41-60%) in experiment [2] and 1 (0-20%) in experiment [7]. The “percentage damage caused … AMARE” value in [3] is recorded as 4 (61-80%); in experiment [8] it was 2 (21-40%). Moreover, the “percentage damage caused … IPOHE” value in [4] and in experiment [9] was 2 (21-40%) throughout. Moreover, the “percentage damage caused … SETFA” value in [5] is on record as 3 (41-60%); in experiment [10], 1 (0-20%).
In the case of `FC(F)c1cc(Cc2ncc(Cl)cn2)n(CCBr)n1` [Compound 1.025], the “percentage damage caused … AMAPA” value is listed as 4 (61-80%) in [1] and 1 (0-20%) in experiment [6]. In addition, the “percentage damage caused … ECHCG” value in experiment [2] is on record as 2 (21-40%); in experiment [7] it was 1 (0-20%). Further, the results for the “percentage damage caused … AMARE” value in experiment [3] and in [8] were 4 (61-80%) and 1 (0-20%), respectively. Besides, the “percentage damage caused … IPOHE” value in [4] and in experiment [9] was 1 (0-20%) each time. For the same molecule, the “percentage damage caused … SETFA” value in experiment [5] and in experiment [10] was 1 (0-20%) each time.
As for `FC(F)CCn1nc(C(F)F)cc1Cc1ncc(Cl)cn1` [Compound 1.008], the entries for the “percentage damage caused … AMAPA” value in experiment [1] and in experiment [6] were 5 (81-100%) and 3 (41-60%), respectively. For the same molecule, the “percentage damage caused … ECHCG” value in [2] is listed as 4 (61-80%); in [7], 1 (0-20%). In addition, the “percentage damage caused … AMARE” value in [3] is given as 5 (81-100%); in experiment [8] it was 3 (41-60%). Further, the “percentage damage caused … IPOHE” value in [4] was 3 (41-60%); in experiment [9], 4 (61-80%). The “percentage damage caused … SETFA” value in [5] is 4 (61-80%); in experiment [10] it was 1 (0-20%).
For `CC(C)(C#N)CCCn1nc(C(F)(F)F)cc1Cc1ncc(Cl)cn1` [Compound 1.019], the “percentage damage caused … AMAPA” value in experiment [1] and in [6] was 1 (0-20%) throughout. The “percentage damage caused … ECHCG” value in experiment [2] and in [7] was 1 (0-20%) in each case. The “percentage damage caused … AMARE” value in experiment [3] and in experiment [8] was 1 (0-20%) in each case. The “percentage damage caused … IPOHE” value in experiment [4] and in experiment [9] was 1 (0-20%) throughout. Further, the “percentage damage caused … SETFA” value in experiment [5] and in [10] was 1 (0-20%) in each case.
On to `N#CC1(Cn2nc(C(F)F)cc2Cc2ccc(Cl)cc2)CC1` [Compound 1.027], for which the “percentage damage caused … AMAPA” value in experiment [1] and in experiment [6] was 1 (0-20%) throughout. Further, the “percentage damage caused … ECHCG” value in experiment [2] and in experiment [7] was 1 (0-20%) throughout. For the same molecule, the “percentage damage caused … AMARE” value in [3] and in experiment [8] was 1 (0-20%) in each case. For the same molecule, the “percentage damage caused … IPOHE” value is given as 2 (21-40%) in experiment [4] and 1 (0-20%) in experiment [9]. For the same molecule, the “percentage damage caused … SETFA” value is 2 (21-40%) in experiment [5] and 1 (0-20%) in experiment [10].
Regarding `CCSCCn1nc(C(F)F)cc1Cc1ncc(Cl)cn1` [Compound 1.030], the “percentage damage caused … AMAPA” value is listed as 1 (0-20%) in experiment [1] and 5 (81-100%) in experiment [6]. For the same molecule, the “percentage damage caused … ECHCG” value in experiment [2] is reported as 1 (0-20%); in [7], 2 (21-40%). The results for the “percentage damage caused … AMARE” value in experiment [3] and in experiment [8] were 1 (0-20%) and 5 (81-100%), respectively. For the same molecule, the figures for the “percentage damage caused … IPOHE” value in [4] and in [9] were 1 (0-20%) and 5 (81-100%), respectively. Also, the “percentage damage caused … SETFA” value in experiment [5] was 1 (0-20%); in [10] it was 4 (61-80%).
As to `FC(F)c1cc(Cc2ncc(Cl)cn2)n(CCn2ccc(C(F)(F)F)n2)n1` [Compound 1.038], the entries for the “percentage damage caused … AMAPA” value in [1] and in [6] were 2 (21-40%) and 1 (0-20%), respectively. In addition, the figures for the “percentage damage caused … ECHCG” value in experiment [2] and in experiment [7] were 2 (21-40%) and 1 (0-20%), respectively. The “percentage damage caused … AMARE” value in experiment [3] and in [8] was 1 (0-20%) each time. In addition, the “percentage damage caused … IPOHE” value in experiment [4] and in experiment [9] was 1 (0-20%) in each case. For the same molecule, the entries for the “percentage damage caused … SETFA” value in [5] and in [10] were 2 (21-40%) and 1 (0-20%), respectively.
Take `FC(F)CCn1nc(C(F)(F)Cl)cc1Cc1ncc(Cl)cn1` [Compound 1.031]: the figures for the “percentage damage caused … AMAPA” value in [1] and in experiment [6] were 5 (81-100%) and 4 (61-80%), respectively. Also, the entries for the “percentage damage caused … ECHCG” value in experiment [2] and in experiment [7] were 5 (81-100%) and 3 (41-60%), respectively. The “percentage damage caused … AMARE” value is 5 (81-100%) in experiment [3] and 4 (61-80%) in experiment [8]. Moreover, the figures for the “percentage damage caused … IPOHE” value in [4] and in experiment [9] were 5 (81-100%) and 4 (61-80%), respectively. The “percentage damage caused … SETFA” value is given as 5 (81-100%) in [5] and 4 (61-80%) in experiment [10].
